Experimental findings from patent US12492210B2, “Tricyclic compounds and their use” (HUTCHISON MEDIPHARMA LIMITED, priority 2019, dated 2025) are described below.

Where only a bound is given, the exact number is not on record here.

As usually defined, the IC50 is the midpoint of a concentration-inhibition curve.

The subject of assay [1] is p-RSK (Thr359) in colo205 cells. The assay can be described thus: p-RSK (Thr359) Acumen Assay in Colo205. It counts as cell-based. The settings on record: Homo sapiens, COLO 205, 1 hour compound incubation, read-out: Example 19 IC50. The protocol:
Example 19: p-RSK (Thr359) Acumen Assay in Colo205
• Phospho-p90RSK (Thr359) (D1E9) Rabbit mAb: cell signal, #8753 • Alexa Fluor® 488 donkey anti-rabbit IgG: invitrogen, #A-21206 • Propidium Iodide: Sigma, #p4170 • 4% Paraformaldehyde: SCRC, #DF021 • 10% Triton X-100: PIERCE, #28314 • 96-well plate (black with clear bottom): BD, #354640 • Acumen® eX3 (A Multilaser Microplate Cytometer For Enhanced High Content Screening): TTP LabTech 3. Acumen Assay Protocol • Seed 4000 cells in 100 μl 10% FBS/well into 96-well plate, incubate at 37° C., 5% CO2, overnight. • Dilute the compound to 3, 1, 0.33, 0.11, 0.037, 0.012, 0.004, 0.001 μM, keeping the DMSO concentration at 5%. Add 10 μl of diluted compound per well and incubate at 37° C., 5% CO2 for 1 hour. • Add 100 μl of 4% pre-warmed Paraformaldehyde (2% final), and incubate for 45 min at room temperature. • Remove paraformaldehyde solutions. Add 100 μl of ice-cold 0.1% Triton to fixed cells at room temperature for 30 min. • Wash twice with 150 μl PBS and incubate with 100 μl blocking buffer (1% BSA, in PBS) for 2˜3 hours at room temperature, seal the plate. • Wash once with PBS and incubate with 35 μl p-RSK (Thr359) (1:1000 dilution) overnight at 4° C. Seal the plate. • Wash twice with PBS and incubate for 1.5 hours at room temperature with 35 μl of Alexa Fluor® 488 donkey anti-rabbit IgG at a 1:1,000 dilution in antibody dilution buffer (0.1% BSA, in PBS). Cover plate in foil to keep out of light. • Wash twice with 150 μl PBS. Add 35 μl of 1.5 μM Propidium Iodide stock to each well to determine cell number, seal the plate. • Incubate at room temperature for 30 min. Load the plate into the Acumen Explorer and scan with the appropriate instrument settings. 4. Data Analysis
[formula] Note: • Percentagecompound well represents the positive percentage of cells treated by compound. • Percentagemin well represents the positive percentage of cells treated with 3 uM GDC0994. • Percentagemax well represents the positive percentage of cells without compounds treatment. 5. IC50 Value: determine IC50 with add-in software for Microsoft Excel, XLfit™ (version 2.0) from ID Business Solutions (Guildford, UK)

The target of assay [2] is T1, MAPK1(ERK2) enzyme (Homo sapiens, UniProt P28482).
T1 construct: purchased Invitrogen PV3313
T1 sequence (P28482 whole entry): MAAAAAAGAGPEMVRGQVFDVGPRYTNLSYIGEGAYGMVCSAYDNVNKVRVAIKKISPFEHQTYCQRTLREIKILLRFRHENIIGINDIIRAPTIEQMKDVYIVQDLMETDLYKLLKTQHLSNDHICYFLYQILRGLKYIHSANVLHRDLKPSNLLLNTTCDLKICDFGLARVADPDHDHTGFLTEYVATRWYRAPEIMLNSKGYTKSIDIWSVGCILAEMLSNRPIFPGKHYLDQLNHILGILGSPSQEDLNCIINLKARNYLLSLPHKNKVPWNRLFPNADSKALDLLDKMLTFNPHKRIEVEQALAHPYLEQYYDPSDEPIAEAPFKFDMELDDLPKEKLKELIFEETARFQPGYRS
The assay can be described thus: Z-Lyte Kinase Assay of ERK2. It counts as biochemical. Conditions: read-out: Example 18 IC50. As to the method:
Example 18: Z-Lyte Kinase Assay of ERK2
1. Materials and Reagents:
2. Reaction Steps: Plate Map
3. Solution Preparation • 1) 1.33× Kinase Buffer: Dilute 5× Kinase Buffer to 1.33× with ddH2O • 2) 4× Test Compounds: Serially dilute the test compounds to 4 folds of the concentrations desired, keeping the DMSO concentration at 8%. The final concentrations are 1, 0.33, 0.11, 0.037, 0.012, 0.004, 0.0014, 0.00046 μM, and the final concentration of DMSO is 2%. • 3) Kinase/Peptide Mixture (P/K solution): Prepare Kinase/Peptide Mixture by diluting the kinase to 0.6 μg/ml and the Z-LYTE™ Ser/Thr3 peptide to 4 μM in 1.33× Kinase Buffer. Mix gently by pipetting. • 4) Phospho-peptide Solution (PP solution): Add 0.4 μl of Z-LYTE™ Ser/Thr3 Phospho-peptide to 99.6 μl of 1.33× Kinase Buffer. • 5) ATP Solution: Prepare ATP Solution by diluting the 10 mM of ATP in 1.33× Kinase Buffer to 100 μM. • 6) Development Solution: Dilute Development Reagent A with Development Buffer as 1:1024. 4. Reaction • 1) Kinase reaction (10 μl of Volume) • a. In a 384-well plate, add 2.5 μl of 4× test Cpds to each well except C1, C2, C3 wells Add 2.5 μl of 8% DMSO to C1, C2, C3 wells • b. Put the plate on ice • c. Add 5 μl of P/K mixture to each test Cpd wells and C1, C2 wells • d. Add 5 μl of PP Solution to C3 well • e. Add 2.5 μl of 1.33× kinase buffer to C1 and C3 wells • f. Add 2.5 μl of 4×ATP Solution to each test Cpd wells and C2 well, respectively. Shake the plate for 30 Sec and centrifuge (1500 rpm, 1 min) • g. Seal the plate to protect from the light and incubate the plate for 1 hour at RT (25-30° C.) • 2) Development reaction • a. Add 5 μl of the Development solution to all wells • b. Shake the plate for 30 sec and centrifuge (1500 rpm, 1 min) • c. Seal the plate to protect from the light and incubate the plate for 1 hour at RT (25-30° C.) • 3) Stop and read • a. Add 5 μl of the Stop reagent to all wells • b. Shake the plate for 30 sec and centrifuge (1500 rpm, 1 min) • c. Measure the value of coumarin (Ex400 nm, Em445 nm) and fluorescein (Ex400 nm, Em520 nm), respectively. 5. Data Analysis Emission Ratio(ER)=Coumarin Emission (445 nm)/Fluorescein Emission (520 nm) % Phosphorylation=1−[ER×C3520nm−C3445nm]/[(C1445nm−C3445nm)+ER×(C3520nm−C1520nm)] Inhibition rate (IR)=1−% Photest Cpd% PhoC2 6. IC50 Value: determine IC50 with add-in software for Microsoft Excel, XLfit™ (version 2.0) from ID Business Solutions (Guildford, UK)

For `Cc1cnc(Nc2ccnn2C)cc1-c1cc2n(c1)CC(F)(F)Cn1c-2nnc1C1(C(F)F)CC(F)(F)C1` [Compound 169], the half-inhibitory concentration (IC50) in assay [1] was at most 100 nM; in assay [2] it was at most 5 nM.

Consider `Cc1cnc(Nc2ccnn2C(F)F)nc1-c1cn2c(n1)-c1nnc(C(F)(F)c3ccccc3Cl)n1[C@@H](C)C2` [Compound 228], for which the 50% inhibitory concentration (IC50) in assay [1] is at most 100 nM; in assay [2] it was at most 5 nM.

As to `Cn1nccc1Nc1cc(-c2cc3n(c2)CC2(COC2)Cn2c-3nnc2C2(C(F)(F)F)CCC2)c(Cl)cn1` [Compound 307], the IC50 in assay [1] is at most 100 nM; in assay [2] it was at most 5 nM.

For `Cn1nccc1Nc1cc(-c2cc3n(c2)C[C@H](CF)n2c-3nnc2C(F)(F)c2ncccc2Cl)c(Cl)cn1` [Compound 207], the IC50 was at most 100 nM in assay [1] and at most 5 nM in assay [2].

Take `Cn1nccc1Nc1cc(-c2cc3n(c2)CC2(COC2)n2c(CCC(F)(F)F)nnc2-3)c(Cl)cn1` [Compound 305]: the IC50 is above 100 nM in assay [1] and at most 5 nM in assay [2].

`Cc1cnc(Nc2ccnn2C)nc1-c1cc2n(c1)CCCn1c-2nnc1C1(C(F)(F)F)CCC1` [Compound 12]: the figures for the IC50 in assay [1] and in assay [2] were at most 100 nM and at most 5 nM, respectively.

With `Cc1c(-c2ccnc(Nc3ccnn3C)n2)cn2c1-c1nnc([C@H](C)Oc3ccccc3F)n1CCC2` [Compound 29], the IC50 in assay [1] was at most 100 nM; in assay [2], at most 5 nM.

As to `Cn1nccc1Nc1cc(-c2cc3n(c2)CCCn2c-3nnc2C2(C(F)(F)F)CCC2)c(F)cn1` [Compound 241], the IC50 was above 100 nM in assay [1] and at most 5 nM in assay [2].

Consider `Cc1cnc(Nc2ccnn2C)nc1-c1cc2n(c1)CCC(C)(C)n1c-2nnc1C1(C(F)(F)F)CC1` [Compound 251], for which the results for the IC50 in assay [1] and in assay [2] were at most 100 nM and at most 5 nM, respectively.

In the case of `C[C@@H](CO)Nc1ncc(Cl)c(-c2cc3n(c2)CCCn2c-3nnc2C2(C(F)(F)F)CCC2)n1` [Compound 276], the values for the IC50 in assay [1] and in assay [2] were at most 100 nM and at most 5 nM, respectively.

In the case of `Cn1nccc1Nc1ncc(F)c(-c2cc3n(c2)C[C@H](CF)n2c-3nnc2C(F)(F)c2ccccc2)n1` [Compound 98], the results for the 50% inhibitory concentration (IC50) in assay [1] and in assay [2] were at most 100 nM and at most 5 nM, respectively.

Consider `Cc1cnc(Nc2c3c(nn2C)CCC3)nc1-c1cc2n(c1)C[C@H](CF)n1c(Cc3ccccc3F)nnc1-2` [Compound 150], for which the IC50 was at most 100 nM in assay [1] and at most 5 nM in assay [2].

As for `Cc1cnc(Nc2ccnn2C)nc1-c1cc2n(c1)C[C@H](C)n1c-2nnc1C1(C(F)(F)F)CCC1` [Compound 238], the IC50 in assay [1] is above 100 nM; in assay [2], at most 5 nM.

For the compound `Cn1nccc1Nc1cc(-c2cc3n(c2)CC(F)(F)Cn2c(Cn4ncc5ccccc54)nnc2-3)c(Cl)cn1` [Compound 199], the IC50 in assay [1] is above 100 nM; in assay [2], 5 to 10 nM.

Regarding `Cn1nccc1Nc1nccc(-c2cn3c(c2F)-c2nnc(C4(C(F)(F)F)CCC4)n2CCC3)n1` [Compound 243], the half-inhibitory concentration (IC50) in assay [1] was above 100 nM; in assay [2], at most 5 nM.

For the compound `C[C@H]1CCn2cc(-c3cc(Nc4ccnn4C)ncc3Cl)cc2-c2nnc(C3(CC(F)(F)F)CCC3)n21` [Compound 160], the IC50 in assay [1] is at most 100 nM; in assay [2] it was at most 5 nM.

Take `Cn1nccc1Nc1cc(-c2cc3n(c2)CC(F)(F)Cn2c(Cn4cc(F)cn4)nnc2-3)c(Cl)cn1` [Compound 106]: the values for the half-maximal inhibitory concentration (IC50) in assay [1] and in assay [2] were at most 100 nM and at most 5 nM, respectively.

Regarding `Cn1nccc1Nc1cc(-c2cc3n(c2)CCn2c(Cc4ccccc4F)nnc2-3)c(Cl)cn1` [Compound 9], the results for the IC50 in assay [1] and in assay [2] were at most 100 nM and at most 5 nM, respectively.

Take `Cc1cnc(N[C@@H](C)CO)nc1-c1cc2n(c1)CCCn1c-2nnc1C1(C(F)(F)F)CCC1` [Compound 275, (S)-2-((5-methyl-4-(3-(1-(trifluoromethyl)cyclobutyl)-6,7-dihydro-5H-pyrrolo[1,2-a][1,2,4]triazolo[3,4-c][1,4]diazepin-10-yl)pyrimidin-2-yl)amino)propan-1-ol]: the IC50 in assay [1] was at most 100 nM; in assay [2] it was at most 5 nM.

On to `Cn1nccc1Nc1ncc(F)c(-c2cc3n(c2)C[C@H](CF)n2c-3nnc2C(F)(F)c2ccccc2Cl)n1` [Compound 193], for which the IC50 in assay [1] is at most 100 nM; in assay [2], 5 to 10 nM.

Consider `Cn1nccc1Nc1cc(-c2cc3n(c2)CCCn2c(COC4(C(F)(F)F)CCC4)nnc2-3)c(Cl)cn1` [Compound 34], for which the IC50 in assay [1] is above 100 nM; in assay [2], above 10 nM.

For the compound `Cn1nccc1Nc1cc(-c2cc3n(c2)C[C@H](CF)n2c-3nnc2C(F)(F)c2nccs2)c(Cl)cn1` [Compound 161], the IC50 is at most 100 nM in assay [1] and at most 5 nM in assay [2].

Consider `COc1cc(Nc2ncc(C)c(-c3cc4n(c3)C[C@H](C)n3c-4nnc3C(F)(F)c3ccccc3F)n2)c(C)cn1` [Compound 294], for which the results for the IC50 in assay [1] and in assay [2] were above 100 nM and above 10 nM, respectively.

In the case of `COC[C@H]1Cn2cc(-c3cc(Nc4ccnn4C)ncc3C)cc2-c2nnc(C(F)(F)c3ccccc3F)n21` [Compound 303], the IC50 was above 100 nM in assay [1] and 5 to 10 nM in assay [2].

In the case of `Cn1nccc1Nc1cc(-c2cc3n(c2)CC(F)(F)Cn2c(COC(F)(F)F)nnc2-3)c(Cl)cn1` [Compound 107], the concentration for half-maximal inhibition (IC50) in assay [1] was above 100 nM; in assay [2] it was at most 5 nM.

As to `Cc1cnc(Nc2ccnn2C)cc1-c1cc2n(c1)C[C@H](CF)n1c-2nnc1C(F)(F)C(F)F` [Compound 62], the IC50 in assay [1] is at most 100 nM; in assay [2], at most 5 nM.

Turning to `Cc1nonc1C(F)(F)c1nnc2n1[C@@H](C)Cn1cc(-c3cc(Nc4ccnn4C)ncc3Cl)cc1-2` [Compound 103], the IC50 in assay [1] was at most 100 nM; in assay [2], 5 to 10 nM.

With `Cn1nccc1Nc1cc(-c2cc3n(c2)CC(F)(F)Cn2c-3nnc2C2(C(F)F)COC2)c(Cl)cn1` [Compound 32], the IC50 in assay [1] is at most 100 nM; in assay [2], at most 5 nM.

Take `Cc1cnc(Nc2ccnn2C)nc1-c1cc2c3nnc(C4(C(F)F)CCC4)n3ccn2c1` [Compound 45]: the IC50 in assay [1] is at most 100 nM; in assay [2], at most 5 nM.

`Cc1ncccc1C(F)(F)c1nnc2n1[C@@H](CF)Cn1cc(-c3cc(Nc4ccnn4C)ncc3Cl)cc1-2` [Compound 177]: the IC50 is at most 100 nM in assay [1] and above 10 nM in assay [2].

As to `Cn1nccc1Nc1cc(-c2cc3n(c2)C[C@H](CF)n2c-3nnc2C(F)(F)c2ccccn2)c(Cl)cn1` [Compound 141], the IC50 was at most 100 nM in assay [1] and at most 5 nM in assay [2].
